Results as given in US20230011869A1 (Hoffmann-La Roche Inc., priority 2018, published 2023).
Where a name gives a salt, the structure may show the parent alone.

tested on: Acinetobacter baumannii ATCC17978; test: Antimicrobial susceptibility testing: 90% growth inhibitory concentration (IC90) determination, Iso-Sensitest broth; format: cell-based; details: 90% growth inhibitory concentration, Acinetobacter baumannii ATCC17978, Iso-Sensitest broth, OD 600 nm over 16 h; read-out: ATCC17978 IC90
Method in brief: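 A. baumannii ATCC17978 grown in Iso-Sensitest broth across 10 compound concentrations at 35±2 °C.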

Row | SMILES | IC90 [nM]
1 | Cc1cc(Nc2nccn3c(-c4ccc(OCC#N)c(F)c4Cl)cnc23)ccc1C(=O)N1CCN(C(=O)N2CCO[C@H](CN)C2)CC1 [Example 157, 2-[4-[8-[4-[4-[(2R)-2-(aminomethyl)morpholine-4-carbonyl]piperazine-1-carbonyl]-3-methyl-anilino]imidazo[1,2-a]pyrazin-3-yl]-3-chloro-2-fluoro-phenoxy]acetonitrile formate] | 92
2 | Cc1cc(Nc2nccn3c(-c4ccc(OCC#N)c(F)c4Cl)cnc23)ccc1C(=O)N1CCN(C(=O)N[C@H](C)CN)CC1 [Example 160, N-[(1R)-2-amino-1-methyl-ethyl]-4-[4-[[3-[2-chloro-4-(cyanomethoxy)-3-fluoro-phenyl]imidazo[1,2-a]pyrazin-8-yl]amino]-2-methyl-benzoyl]piperazine-1-carboxamide formate] | 100
3 | Cc1cc(Nc2nccn3c(-c4ccc(OCC#N)c(F)c4Cl)cnc23)ccc1C(=O)N1CCN(C(=O)NC[C@@H](C)N)CC1 [Example 164, N-[(2R)-2-aminopropyl]-4-[4-[[3-[2-chloro-4-(cyanomethoxy)-3-fluoro-phenyl]imidazo[1,2-a]pyrazin-8-yl]amino]-2-methyl-benzoyl]piperazine-1-carboxamide formate] | 71
4 | Cc1cc(Nc2nccn3c(-c4ccc(OCC#N)c(F)c4Cl)cnc23)ccc1C(=O)N1CCN(C(=O)NC[C@H](C)N)CC1 [Example 165, N-[(2S)-2-aminopropyl]-4-[4-[[3-[2-chloro-4-(cyanomethoxy)-3-fluoro-phenyl]imidazo[1,2-a]pyrazin-8-yl]amino]-2-methyl-benzoyl]piperazine-1-carboxamide formate] | 71
5 | COc1ccc(-c2cnc3c(Nc4ccc(C(=O)N5CCN(C(=O)N[C@H](C)CN)CC5)c(C)c4)nccn23)c(Cl)c1F [Example 166, formate] | 200
6 | COc1ccc(-c2cnc3c(Nc4ccc(C(=O)N5CCN(C(=O)N6CCO[C@H](CN)C6)CC5)c(C)c4)nccn23)c(Cl)c1F [Example 167, [4-[(2R)-2-(aminomethyl)morpholine-4-carbonyl]piperazin-1-yl]-[4-[[3-(2-chloro-3-fluoro-4-methoxy-phenyl)imidazo[1,2-a]pyrazin-8-yl]amino]-2-methyl-phenyl]methanone formate] | 220
7 | Cc1cc(Nc2nccn3c(-c4ccc(OC(F)F)cc4)cnc23)ccc1C(=O)N1CCN(C(=O)NCCN2CCC2)CC1 [Example 168, N-[2-(azetidin-1-yl)ethyl]-4-[4-[[3-[4-(difluoromethoxy)phenyl]imidazo[1,2-a]pyrazin-8-yl]amino]-2-methyl-benzoyl]piperazine-1-carboxamide formate] | 470
8 | Cc1cc(Nc2nccn3c(-c4ccc(OC(F)F)cc4)cnc23)ccc1C(=O)N1CCN(C(=O)NC2CNC2)CC1 [Example 169, N-(azetidin-3-yl)-4-[4-[[3-[4-(difluoromethoxy)phenyl]imidazo[1,2-a]pyrazin-8-yl]amino]-2-methyl-benzoyl]piperazine-1-carboxamide trifluoroacetate] | 470
9 | COc1ccc(-c2cnc3c(Nc4ccc(C(=O)N5CCN(C(=O)C6CCCN6)CC5)c(C)c4)nccn23)cc1F (stereo not shown) [Example 174, [4-[[3-(3-fluoro-4-methoxy-phenyl)imidazo[1,2-a]pyrazin-8-yl]amino]-2-methyl-phenyl]-[4-(pyrrolidine-2-carbonyl)piperazin-1-yl]methanone] | 300
10 | COc1ccc(-c2cnc3c(Nc4ccc(C(=O)N5CCN(C(=O)[C@@H]6CCN6)CC5)c(C)c4)nccn23)cc1F [Example 175, [4-[(2S)-azetidine-2-carbonyl]piperazin-1-yl]-[4-[[3-(3-fluoro-4-methoxy-phenyl)imidazo[1,2-a]pyrazin-8-yl]amino]-2-methyl-phenyl]methanone] | 250
11 | Cc1cc(Nc2nccn3c(-c4ccc(OC(F)F)cc4)cnc23)ccc1C(=O)N1CCN(C(=O)[C@@H]2CCN2)CC1 [Example 176, [4-[(2S)-azetidine-2-carbonyl]piperazin-1-yl]-[4-[[3-[4-(difluoromethoxy)phenyl]imidazo[1,2-a]pyrazin-8-yl]amino]-2-methyl-phenyl]methanone hydrochloride] | 130
12 | Cc1cc(Nc2nccn3c(-c4ccc(OC(F)F)cc4)cnc23)ccc1C(=O)N1CCN(C(=O)C2CCCN2)CC1 (stereo not shown) [Example 177, [4-[[3-[4-(difluoromethoxy)phenyl]imidazo[1,2-a]pyrazin-8-yl]amino]-2-methyl-phenyl]-[4-(pyrrolidine-2-carbonyl)piperazin-1-yl]methanone hydrochloride] | 210
13 | COc1ccc(-c2cnc3c(Nc4ccc(C(=O)N5CCN(C(=O)[C@@H]6CCCN6)CC5)c(C)c4)nccn23)cc1F [Example 178, [4-[[3-(3-fluoro-4-methoxy-phenyl)imidazo[1,2-a]pyrazin-8-yl]amino]-2-methyl-phenyl]-[4-[(2S)-pyrrolidine-2-carbonyl]piperazin-1-yl]methanone hydrochloride] | 89
14 | COc1ccc(-c2cnc3c(Nc4ccc(C(=O)N5CCN(C(=O)[C@H]6CCCN6)CC5)c(C)c4)nccn23)cc1F [Example 179, [4-[[3-(3-fluoro-4-methoxy-phenyl)imidazo[1,2-a]pyrazin-8-yl]amino]-2-methyl-phenyl]-[4-[(2R)-pyrrolidine-2-carbonyl]piperazin-1-yl]methanone hydrochloride] | 190
15 | Cc1cc(Nc2nccn3c(-c4ccc(OC(F)F)cc4)cnc23)ccc1C(=O)N1CCN(C(=O)[C@@H]2C[C@@H](O)CN2)CC1 [Example 180, [4-[[3-[4-(difluoromethoxy)phenyl]imidazo[1,2-a]pyrazin-8-yl]amino]-2-methyl-phenyl]-[4-[(2S,4R)-4-hydroxypyrrolidine-2-carbonyl]piperazin-1-yl]methanone hydrochloride] | 270
16 | Cc1cc(Nc2nccn3c(-c4ccc(OC(F)F)cc4)cnc23)ccc1C(=O)N1CCC(C(=O)N2CCNCC2CO)CC1 (stereo not shown) [Example 181, [4-[[3-[4-(difluoromethoxy)phenyl]imidazo[1,2-a]pyrazin-8-yl]amino]-2-methyl-phenyl]-[4-[2-(hydroxymethyl)piperazine-1-carbonyl]-1-piperidyl]methanone hydrochloride] | 130
17 | Cc1cc(Nc2nccn3c(-c4ccc(OC(F)F)cc4)cnc23)ccc1C(=O)N1CCN(C(=O)[C@@H]2C[C@H](O)CN2)CC1 [Example 182, [4-[[3-[4-(difluoromethoxy)phenyl]imidazo[1,2-a]pyrazin-8-yl]amino]-2-methyl-phenyl]-[4-[(2S,4S)-4-hydroxypyrrolidine-2-carbonyl]piperazin-1-yl]methanone hydrochloride hydrochloride] | 180
18 | Cc1cc(Nc2nccn3c(-c4ccc(OC(F)F)cc4)cnc23)ccc1C(=O)N1CCC(C(=O)N2CCNC(CO)C2)CC1 (stereo not shown) [Example 183, [4-[[3-[4-(difluoromethoxy)phenyl]imidazo[1,2-a]pyrazin-8-yl]amino]-2-methyl-phenyl]-[4-[3-(hydroxymethyl)piperazine-1-carbonyl]-1-piperidyl]methanone hydrochloride] | 270
19 | CCc1cc(Nc2nccn3c(-c4ccc(OC)c(F)c4F)cnc23)ccc1C(=O)N1CCN(C(=O)[C@@H]2C[C@@H](O)CN2)CC1 [Example 185, [4-[[3-(2,3-difluoro-4-methoxy-phenyl)imidazo[1,2-a]pyrazin-8-yl]amino]-2-ethyl-phenyl]-[4-[(2S,4R)-4-hydroxypyrrolidine-2-carbonyl]piperazin-1-yl]methanone hydrochloride] | 220
20 | COc1ccc(-c2cnc3c(Nc4ccc(C(=O)N5CCN(C(=O)[C@H]6CCNC6)CC5)c(C)c4)nccn23)cc1F [Example 186, [4-[[3-(3-fluoro-4-methoxy-phenyl)imidazo[1,2-a]pyrazin-8-yl]amino]-2-methyl-phenyl]-[4-[(3S)-pyrrolidine-3-carbonyl]piperazin-1-yl]methanone hydrochloride] | 250
21 | COc1ccc(-c2cnc3c(Nc4ccc(C(=O)N5CCN(C(=O)C6CNC6)CC5)c(C)c4)nccn23)cc1F [Example 187, [4-(azetidine-3-carbonyl)piperazin-1-yl]-[4-[[3-(3-fluoro-4-methoxy-phenyl)imidazo[1,2-a]pyrazin-8-yl]amino]-2-methyl-phenyl]methanone hydrochloride] | 230
22 | COc1ccc(-c2cnc3c(Nc4ccc(C(=O)N5CCN(C(=O)[C@H]6CCNC[C@@H]6O)CC5)c(C)c4)nccn23)c(F)c1F [Example 192, [4-[[3-(2,3-difluoro-4-methoxy-phenyl)imidazo[1,2-a]pyrazin-8-yl]amino]-2-methyl-phenyl]-[4-[(3R,4S)-3-hydroxypiperidine-4-carbonyl]piperazin-1-yl]methanone hydrochloride] | 290
23 | COc1ccc(-c2cnc3c(Nc4ccc(C(=O)N5CCN(C(=O)[C@@H]6CCNC[C@H]6O)CC5)c(C)c4)nccn23)c(F)c1F [Example 193, [4-[[3-(2,3-difluoro-4-methoxy-phenyl)imidazo[1,2-a]pyrazin-8-yl]amino]-2-methyl-phenyl]-[4-[(3S,4R)-3-hydroxypiperidine-4-carbonyl]piperazin-1-yl]methanone hydrochloride] | 290
24 | CCc1cc(Nc2nccn3c(-c4ccc(OCC#N)c(F)c4F)cnc23)ccc1C(=O)N1CCN(C(=O)C2CCNCC2)CC1 [Example 194, 2-[4-[8-[3-ethyl-4-[4-(piperidine-4-carbonyl)piperazine-1-carbonyl]anilino]imidazo [1,2-a]pyrazin-3-yl]-2,3-difluoro-phenoxy]acetonitrile formate] | 290
25 | Cc1cc(Nc2nccn3c(-c4ccc(OCC#N)c(F)c4F)cnc23)ccc1C(=O)N1CCN(C(=O)[C@H]2CCNC2)CC1 [Example 201, 2-[2,3-difluoro-4-[8-[3-methyl-4-[4-[(3S)-pyrrolidine-3-carbonyl]piperazine-1-carbonyl]anilino]imidazo[1,2-a]pyrazin-3-yl]phenoxy] acetonitrile; formic acid] | 100
